As usually defined, the IC50 is the concentration that inhibits the measured activity by half. A high value points to lower potency.

A value given as a limit tells only on which side of the number the result lay.

Test [1] concerns the target Fibroblast growth factor receptor 2 (Homo sapiens) (UniProt P21802). Put plainly: Selectivity interaction (KinomeScan (DiscoverX)) EUB0001619a FGFR2. The following applies: at 1 µM.
The target of test [2] is T1, Tyrosine-protein kinase JAK3 (Homo sapiens) (UniProt P52333).
T1 sequence (whole entry): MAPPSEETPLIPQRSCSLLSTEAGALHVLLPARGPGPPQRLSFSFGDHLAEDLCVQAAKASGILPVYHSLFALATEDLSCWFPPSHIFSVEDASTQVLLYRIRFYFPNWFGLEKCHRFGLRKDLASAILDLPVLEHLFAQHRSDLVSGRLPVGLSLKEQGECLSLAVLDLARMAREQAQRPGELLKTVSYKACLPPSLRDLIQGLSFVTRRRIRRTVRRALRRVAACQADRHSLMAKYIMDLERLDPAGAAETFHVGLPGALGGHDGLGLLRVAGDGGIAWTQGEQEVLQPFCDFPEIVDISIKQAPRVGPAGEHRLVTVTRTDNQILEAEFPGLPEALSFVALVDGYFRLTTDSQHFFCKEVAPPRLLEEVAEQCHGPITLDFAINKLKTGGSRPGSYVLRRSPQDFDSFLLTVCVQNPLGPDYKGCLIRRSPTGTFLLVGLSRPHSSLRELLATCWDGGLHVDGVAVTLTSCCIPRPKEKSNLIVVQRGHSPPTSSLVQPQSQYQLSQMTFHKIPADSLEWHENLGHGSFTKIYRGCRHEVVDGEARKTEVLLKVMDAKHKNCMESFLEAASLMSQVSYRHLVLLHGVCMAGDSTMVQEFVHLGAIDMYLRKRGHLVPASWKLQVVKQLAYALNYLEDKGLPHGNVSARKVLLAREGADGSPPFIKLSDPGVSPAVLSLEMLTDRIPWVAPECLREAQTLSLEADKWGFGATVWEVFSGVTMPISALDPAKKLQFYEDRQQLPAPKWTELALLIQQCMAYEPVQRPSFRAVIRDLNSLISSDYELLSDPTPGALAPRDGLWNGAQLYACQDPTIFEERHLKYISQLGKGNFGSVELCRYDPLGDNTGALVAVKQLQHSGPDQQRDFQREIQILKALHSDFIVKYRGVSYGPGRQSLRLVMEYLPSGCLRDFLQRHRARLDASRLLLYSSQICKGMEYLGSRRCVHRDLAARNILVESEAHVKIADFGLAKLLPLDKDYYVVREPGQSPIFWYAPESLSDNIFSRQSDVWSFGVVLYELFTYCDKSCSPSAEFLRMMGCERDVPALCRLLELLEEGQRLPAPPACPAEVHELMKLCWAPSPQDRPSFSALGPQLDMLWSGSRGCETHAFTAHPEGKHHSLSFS
The following applies: at 10 µM.

The target in test [3] is MAP/microtubule affinity-regulating kinase 3 (Homo sapiens) (UniProt P27448). Put plainly: Selectivity interaction (ActivX KiNativ screen (kinase selectivity in THP-1 cell lysates)) EUB0000639a MARK3. Type of test: subcellular. The following applies: lysate, at 5 µM.
The target in test [4] is Protein arginine N-methyltransferase 5 (Homo sapiens, UniProt O14744). The following applies: at 1 µM.
Test [5] has as its target Tyrosine-protein kinase Yes (Homo sapiens) (UniProt P07947). Description: Selectivity interaction (KinomeScan (DiscoverX)) EUB0000045b YES1.
In test [6] the target is Cyclin-dependent kinase 1/cyclin B (Homo sapiens, UniProt P06493). Put plainly: Selectivity interaction (Kinase panel (Enzyme activity assay)) EUB0000612a CDK1. The class given is protein-complex assay.
Test [7] has as its target Serine/threonine-protein kinase MARK2 (Homo sapiens) (UniProt Q7KZI7). Description: Selectivity interaction (KinomeScan (DiscoverX)) EUB0001049a MARK2. The conditions noted are these: at 1 µM.
For test [8], the target named is T2, Serine/threonine-protein kinase TBK1 (Homo sapiens) (UniProt Q9UHD2).
T2 sequence (whole entry): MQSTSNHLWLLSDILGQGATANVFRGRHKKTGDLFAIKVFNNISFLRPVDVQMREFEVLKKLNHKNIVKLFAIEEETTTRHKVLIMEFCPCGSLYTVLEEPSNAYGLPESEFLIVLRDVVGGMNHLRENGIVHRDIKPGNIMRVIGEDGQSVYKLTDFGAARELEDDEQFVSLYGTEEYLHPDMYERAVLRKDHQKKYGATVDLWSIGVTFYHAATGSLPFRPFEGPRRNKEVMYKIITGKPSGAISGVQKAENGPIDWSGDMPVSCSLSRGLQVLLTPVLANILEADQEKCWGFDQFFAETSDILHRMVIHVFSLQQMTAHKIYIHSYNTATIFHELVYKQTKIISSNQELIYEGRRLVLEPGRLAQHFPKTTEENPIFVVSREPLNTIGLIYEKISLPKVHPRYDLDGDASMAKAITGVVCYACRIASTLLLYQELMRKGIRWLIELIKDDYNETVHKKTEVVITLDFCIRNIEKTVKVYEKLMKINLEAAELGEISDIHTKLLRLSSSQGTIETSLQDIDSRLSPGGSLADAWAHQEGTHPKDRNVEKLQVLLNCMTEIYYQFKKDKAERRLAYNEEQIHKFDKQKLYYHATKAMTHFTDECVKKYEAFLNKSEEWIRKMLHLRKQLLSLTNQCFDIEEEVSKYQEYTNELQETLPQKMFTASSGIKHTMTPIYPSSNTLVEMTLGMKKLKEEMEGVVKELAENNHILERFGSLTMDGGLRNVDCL
Description: Selectivity interaction (Upstate Kinase Profiler service (Millipore)) EUB0000056c TBK1. The following applies: at 1 µM.

The target of test [9] is Serine/threonine-protein kinase N2 (Homo sapiens, UniProt Q16513). Put plainly: Selectivity interaction (KinomeScan (DiscoverX)) EUB0000655a PKN2. The conditions noted are these: at 10 µM.
Test [10] addresses Histone acetyltransferase p300 (Homo sapiens) (UniProt Q09472). Put plainly: Selectivity interaction (Transferase panel (protein, RNA, and DNA methyltransferases. and EP300 (acetyltransferase))) EUB0000270b EP300.
The target of test [11] is Ribosomal protein S6 kinase alpha-5 (Homo sapiens) (UniProt O75582). Description: Selectivity interaction (KinomeScan (DiscoverX)) EUB0000092b RPS6KA5. The following applies: at 10 µM.
The target of test [12] is Histone acetyltransferase KAT2B (Homo sapiens, UniProt Q92831). Description: Selectivity interaction (Human bromodomain panel (DSF assay)) EUB0000233b KAT2B.
Test [13] deals with Insulin-like growth factor 1 receptor (Homo sapiens, UniProt P08069). Description: Selectivity interaction (Millipore kinase profiler) EUB0000124b IGF1R. The conditions noted are these: at 10 µM.
Sequence of Insulin-like growth factor 1 receptor (P08069 31-736 limits assumed): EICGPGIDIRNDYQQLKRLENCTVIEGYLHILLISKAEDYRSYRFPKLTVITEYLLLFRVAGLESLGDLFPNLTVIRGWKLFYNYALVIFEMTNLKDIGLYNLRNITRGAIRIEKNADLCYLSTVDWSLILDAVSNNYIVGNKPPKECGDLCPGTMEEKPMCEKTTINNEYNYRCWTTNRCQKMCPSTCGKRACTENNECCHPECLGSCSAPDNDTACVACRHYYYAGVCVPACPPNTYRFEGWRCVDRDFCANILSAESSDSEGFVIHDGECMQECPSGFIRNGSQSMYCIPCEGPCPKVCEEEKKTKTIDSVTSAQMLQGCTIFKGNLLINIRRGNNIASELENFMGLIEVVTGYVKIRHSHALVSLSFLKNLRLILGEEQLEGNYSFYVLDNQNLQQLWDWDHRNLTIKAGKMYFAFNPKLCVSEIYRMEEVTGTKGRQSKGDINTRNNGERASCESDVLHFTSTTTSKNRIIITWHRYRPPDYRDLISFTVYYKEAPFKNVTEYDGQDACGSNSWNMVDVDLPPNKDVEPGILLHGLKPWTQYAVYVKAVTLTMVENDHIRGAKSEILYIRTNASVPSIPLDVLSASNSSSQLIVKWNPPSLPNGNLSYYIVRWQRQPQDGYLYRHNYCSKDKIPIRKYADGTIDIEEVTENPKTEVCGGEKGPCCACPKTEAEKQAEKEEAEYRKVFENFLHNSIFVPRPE
Sequence of Insulin-like growth factor 1 receptor (P08069 741-1367 limits assumed): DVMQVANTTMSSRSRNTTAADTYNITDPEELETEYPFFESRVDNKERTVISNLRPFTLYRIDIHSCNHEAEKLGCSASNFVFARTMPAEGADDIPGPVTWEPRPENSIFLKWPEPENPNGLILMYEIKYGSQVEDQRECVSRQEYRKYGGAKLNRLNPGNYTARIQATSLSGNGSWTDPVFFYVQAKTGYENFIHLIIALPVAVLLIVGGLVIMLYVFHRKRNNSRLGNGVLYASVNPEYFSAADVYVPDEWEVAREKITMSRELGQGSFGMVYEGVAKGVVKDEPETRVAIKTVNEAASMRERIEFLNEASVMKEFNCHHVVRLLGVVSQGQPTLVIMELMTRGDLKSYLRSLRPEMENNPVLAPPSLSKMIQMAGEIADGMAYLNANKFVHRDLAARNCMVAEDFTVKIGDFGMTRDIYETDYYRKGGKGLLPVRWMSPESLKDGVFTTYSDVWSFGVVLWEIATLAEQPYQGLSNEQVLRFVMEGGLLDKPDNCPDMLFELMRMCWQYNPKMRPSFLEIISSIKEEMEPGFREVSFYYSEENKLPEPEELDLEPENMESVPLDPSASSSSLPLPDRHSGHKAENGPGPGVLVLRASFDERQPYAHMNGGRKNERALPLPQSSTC

Sequence of Histone acetyltransferase p300 (Homo sapiens) (Q09472 whole entry): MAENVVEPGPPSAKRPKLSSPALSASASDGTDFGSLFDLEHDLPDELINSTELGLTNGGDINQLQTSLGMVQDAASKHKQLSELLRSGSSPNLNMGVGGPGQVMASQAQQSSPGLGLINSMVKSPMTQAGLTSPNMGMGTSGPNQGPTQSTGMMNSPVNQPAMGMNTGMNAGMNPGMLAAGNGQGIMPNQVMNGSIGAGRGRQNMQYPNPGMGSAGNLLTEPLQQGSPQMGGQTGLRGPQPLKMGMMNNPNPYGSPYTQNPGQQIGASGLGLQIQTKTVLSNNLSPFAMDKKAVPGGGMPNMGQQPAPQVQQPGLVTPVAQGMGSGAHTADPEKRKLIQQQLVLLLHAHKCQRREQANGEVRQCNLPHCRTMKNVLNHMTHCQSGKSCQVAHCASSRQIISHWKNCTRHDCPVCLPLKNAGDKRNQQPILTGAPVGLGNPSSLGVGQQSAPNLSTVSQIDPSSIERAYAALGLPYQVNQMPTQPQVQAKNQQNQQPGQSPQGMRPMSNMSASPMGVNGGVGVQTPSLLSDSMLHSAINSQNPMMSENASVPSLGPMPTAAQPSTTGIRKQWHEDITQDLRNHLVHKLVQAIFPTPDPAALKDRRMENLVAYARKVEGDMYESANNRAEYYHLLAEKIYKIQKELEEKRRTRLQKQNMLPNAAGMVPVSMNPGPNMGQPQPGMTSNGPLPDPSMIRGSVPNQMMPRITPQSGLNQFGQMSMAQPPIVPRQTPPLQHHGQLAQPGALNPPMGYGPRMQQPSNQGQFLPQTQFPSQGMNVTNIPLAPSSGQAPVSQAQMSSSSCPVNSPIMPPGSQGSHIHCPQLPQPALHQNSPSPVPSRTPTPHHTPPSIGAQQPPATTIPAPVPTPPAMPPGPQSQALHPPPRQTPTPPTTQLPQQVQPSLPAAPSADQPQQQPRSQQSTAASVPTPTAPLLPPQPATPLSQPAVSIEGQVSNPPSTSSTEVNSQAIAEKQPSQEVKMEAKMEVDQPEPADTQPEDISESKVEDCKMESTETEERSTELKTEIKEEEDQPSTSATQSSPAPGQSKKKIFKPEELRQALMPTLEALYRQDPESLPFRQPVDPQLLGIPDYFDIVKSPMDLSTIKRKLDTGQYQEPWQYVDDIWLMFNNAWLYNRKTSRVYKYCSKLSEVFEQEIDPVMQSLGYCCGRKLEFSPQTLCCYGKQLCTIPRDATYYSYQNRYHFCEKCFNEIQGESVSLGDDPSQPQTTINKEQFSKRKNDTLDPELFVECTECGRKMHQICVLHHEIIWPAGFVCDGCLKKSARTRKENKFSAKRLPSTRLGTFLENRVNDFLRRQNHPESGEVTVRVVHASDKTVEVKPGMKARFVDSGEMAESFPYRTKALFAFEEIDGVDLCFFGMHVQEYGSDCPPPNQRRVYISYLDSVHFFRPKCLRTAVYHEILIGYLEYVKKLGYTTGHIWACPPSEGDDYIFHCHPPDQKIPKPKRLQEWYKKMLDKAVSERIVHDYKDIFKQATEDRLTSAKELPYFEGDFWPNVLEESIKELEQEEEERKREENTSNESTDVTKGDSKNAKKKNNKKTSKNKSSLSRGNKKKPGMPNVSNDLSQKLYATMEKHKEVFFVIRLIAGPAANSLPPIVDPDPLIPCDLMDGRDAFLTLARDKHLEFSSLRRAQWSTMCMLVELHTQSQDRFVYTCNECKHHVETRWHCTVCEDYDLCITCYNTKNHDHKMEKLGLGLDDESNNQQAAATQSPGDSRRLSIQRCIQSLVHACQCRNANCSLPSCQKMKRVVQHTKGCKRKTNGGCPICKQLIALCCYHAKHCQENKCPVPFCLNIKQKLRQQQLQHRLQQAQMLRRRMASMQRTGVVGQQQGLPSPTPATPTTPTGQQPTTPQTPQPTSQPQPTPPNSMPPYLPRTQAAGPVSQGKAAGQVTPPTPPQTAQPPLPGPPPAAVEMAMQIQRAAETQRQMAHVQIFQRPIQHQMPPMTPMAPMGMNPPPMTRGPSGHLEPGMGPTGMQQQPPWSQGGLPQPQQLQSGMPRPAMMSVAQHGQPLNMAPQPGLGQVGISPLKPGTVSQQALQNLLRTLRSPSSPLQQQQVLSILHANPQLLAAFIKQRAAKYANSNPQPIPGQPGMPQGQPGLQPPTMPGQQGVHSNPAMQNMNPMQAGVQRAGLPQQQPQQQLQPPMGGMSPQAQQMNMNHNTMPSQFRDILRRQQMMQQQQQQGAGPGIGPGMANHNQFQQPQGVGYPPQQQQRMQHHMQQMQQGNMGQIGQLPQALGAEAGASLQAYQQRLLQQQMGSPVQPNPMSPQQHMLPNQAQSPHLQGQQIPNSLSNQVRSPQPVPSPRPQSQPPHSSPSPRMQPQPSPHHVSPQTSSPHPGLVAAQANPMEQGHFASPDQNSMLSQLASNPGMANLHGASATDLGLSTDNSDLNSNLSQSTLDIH
Sequence of Tyrosine-protein kinase Yes (Homo sapiens) (P07947 2-543 limits assumed): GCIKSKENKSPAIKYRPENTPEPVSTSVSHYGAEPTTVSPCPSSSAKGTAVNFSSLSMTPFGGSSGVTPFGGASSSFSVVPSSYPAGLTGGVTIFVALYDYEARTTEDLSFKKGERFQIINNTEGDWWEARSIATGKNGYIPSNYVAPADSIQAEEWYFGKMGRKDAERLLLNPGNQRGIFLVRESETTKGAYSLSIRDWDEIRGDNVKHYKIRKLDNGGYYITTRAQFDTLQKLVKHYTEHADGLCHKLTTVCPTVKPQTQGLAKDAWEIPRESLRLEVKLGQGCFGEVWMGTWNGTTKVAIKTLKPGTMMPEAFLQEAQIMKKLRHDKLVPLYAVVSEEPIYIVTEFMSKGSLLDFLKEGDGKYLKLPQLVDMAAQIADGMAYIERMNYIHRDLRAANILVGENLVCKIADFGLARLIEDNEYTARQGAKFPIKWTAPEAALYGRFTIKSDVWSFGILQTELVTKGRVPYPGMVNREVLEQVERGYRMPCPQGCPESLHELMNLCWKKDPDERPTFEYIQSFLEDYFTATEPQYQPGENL
Sequence of Serine/threonine-protein kinase MARK2 (Homo sapiens) (Q7KZI7 whole entry): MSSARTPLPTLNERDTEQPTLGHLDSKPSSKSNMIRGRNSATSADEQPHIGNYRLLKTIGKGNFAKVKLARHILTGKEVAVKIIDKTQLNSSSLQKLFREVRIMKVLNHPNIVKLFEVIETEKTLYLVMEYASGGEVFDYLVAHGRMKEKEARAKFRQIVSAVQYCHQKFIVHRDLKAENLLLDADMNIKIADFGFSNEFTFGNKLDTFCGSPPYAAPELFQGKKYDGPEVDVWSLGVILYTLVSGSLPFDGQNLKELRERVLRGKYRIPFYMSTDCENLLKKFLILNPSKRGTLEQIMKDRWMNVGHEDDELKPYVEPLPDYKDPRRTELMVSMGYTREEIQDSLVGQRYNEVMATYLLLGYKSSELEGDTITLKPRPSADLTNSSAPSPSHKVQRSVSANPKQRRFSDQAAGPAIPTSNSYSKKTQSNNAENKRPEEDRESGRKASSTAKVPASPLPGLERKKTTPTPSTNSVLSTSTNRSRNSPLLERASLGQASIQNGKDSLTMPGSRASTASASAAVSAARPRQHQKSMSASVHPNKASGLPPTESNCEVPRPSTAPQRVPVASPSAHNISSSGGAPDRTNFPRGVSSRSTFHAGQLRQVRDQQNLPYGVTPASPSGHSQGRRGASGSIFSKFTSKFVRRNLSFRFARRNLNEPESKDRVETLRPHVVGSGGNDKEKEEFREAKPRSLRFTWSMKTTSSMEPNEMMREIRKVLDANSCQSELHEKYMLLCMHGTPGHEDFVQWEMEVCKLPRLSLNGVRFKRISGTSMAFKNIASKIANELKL

As for `N#Cc1cccc(-c2c[nH]c3ncnc(N4CCOCC4)c23)c1`, the % of control in test [1] was determined as 100%.
For `CCN(CC)CCCCNc1ncc2cc(-c3cc(OC)cc(OC)c3)c(NC(=O)NC(C)(C)C)nc2n1`, in test [2], the % of control worked out at 100%.
The compound `CC[C@@H]1[C@H](F)C(=O)N[C@@H]1COc1nccc2cc(C(N)=O)c(OC)cc12` [ZIMLOVISERTIB] came in with a % of inhibition in test [3] of 45.6%.
In turn, `CNCCN1CCC(c2cc(CN(C)C(=O)c3cccc(Oc4ccccc4)c3)ccn2)CC1` displayed a % activity in test [4] of over 90%.
In the case of `C=CC(=O)Nc1cc(-n2c(=O)ccc3cnc4ccc(-c5ccc(NS(C)(=O)=O)cc5)cc4c32)ccc1C`, the % of control worked out at 74% in [5] (at 1 µM) and 100% in [5] (at 10 µM).
The compound `CCc1cccc(CC)c1NC(=O)c1nn(C)c2c1CCc1cnc(Nc3ccc(C(=O)NC4CCN(C)CC4)cc3OC(F)(F)F)nc1-2` showed an IC50 in [6] of over 10 µM.
Consider `COc1cc(Nc2nc(C)cc(-c3cnn4nc(OC)ccc34)n2)cc(C(F)(F)F)c1`, for which the % of control in test [7] turned out to be 77%.
`Cc1ccc(-c2ccc3c(ccc4sc5c(c43)NC[C@@H](C)NC5=O)n2)cn1` registered a % of inhibition in [8] of 18%.
With `CN(C)CCOc1ccc(-c2nc(-c3ccncc3)c(-c3ccc4c(c3)CC/C4=N\O)[nH]2)cc1`, the % of control in [9] came to 100%.
In the case of `Cc1cc(CN)cc(C)c1-c1ncn(C)c1-c1cncn1C`, the % activity was over 90% in test [10] (at 1 µM) and over 80% in test [10] (at 10 µM).
For `CCC(=O)N1CCN(c2ccc(-n3c(=O)ccc4cnc5ccc(-c6cnc7ccccc7c6)cc5c43)cc2C(F)(F)F)CC1`, the % of control in test [11] came out at 100%.
As to `CN(C)CCCOc1ccc(-c2cc(NCCCn3cccn3)nc(S(C)(=O)=O)n2)cc1`, in test [12], the dTM was under 2 K.
In the case of `CC(=O)Nc1cccc(-n2c(=O)n(C3CC3)c(=O)c3c(Nc4ccc(I)cc4F)n(C)c(=O)c(C)c32)c1`, the % of control in test [13] stood at 95%.

The values are drawn from ChEMBL document CHEMBL5465560, “Selectivity Literature for EUbOPEN Chemogenomic Library” (2024).
